Data set [1] concerns the target T1, CDK12/CycK (Homo sapiens, UniProt Q9NYV4).
T1 construct: ICE Bioscience Inc. (assay service)
Nature of the data set: ADP-Glo kinase assay, CDK12. To be noted: for IC50: ADP-Glo kinase assay, means from three independent experiments. It counts as biochemical. On the procedure: (§1) The kinase inhibitory activities of the compounds against CDK12 and CDK13 were preliminarily evaluated using the ADP-Glo kinase assay. Cell growth inhibition was determined in VCaP prostate cancer cells, which were characterized as being sensitive to CDK12/13 inhibition.[14]
All the kinase activity were performed using an ADP-Glo kinase assay by ICE Bioscience Inc. (Beijing, China). Kinome selectivity profiles (KINOMEscan profiling) and Kd detection were performed by Eurofins DiscoveryX Corporation (San Diego, CA, USA).

Data set [2] deals with T2, CDK13/CycK (Homo sapiens, UniProt Q14004).
T2 construct: ICE Bioscience Inc. (assay service)
Nature of the data set: ADP-Glo kinase assay, CDK13. It is filed as biochemical. The following applies: means from three independent experiments. On the procedure: as §1

For data set [3], the system named is VCaP prostate cancer cells. Description: Cell proliferation assay (CellTiter-Glo), VCaP. It is filed as cell-based, human. To be noted: for IC50: Homo sapiens, VCaP, 120 h, cell growth inhibition, 5 days, CellTiter-Glo. On the procedure: as §1
Cells were seeded in 96-well plates and incubated at 37 °C and 5% CO2. After overnight incubation, serial dilutions of tested compounds were added to the plate. The assay was tested with Cell Titer-Glo (Promega) after 5 days. The luminescence signal was detected by the Infinite M1000 Pro plate reader (Tecan), and the IC50 values were calculated by GraphPad Prism 10.
Background: ATP-based viability assays read luminescence as a measure of living cells.

Data set [4] has as its system VCaP cells. Nature of the data set: Cell apoptosis assay by flow cytometry. To be noted: YJZ5118 at 100 nM. It counts as cell-based, human. On the procedure:
Cells were seeded in six-well plates and incubated for 24 h at 37 °C and 5% CO2. Cells were then treated with the indicated concentrations of the tested compounds for 48 h. The treated cells then were collected, centrifuged and washed twice by cold PBS. […] Cell samples were analyzed with flow cytometry (SH800S cell sorter, Sony Biotechnology).
On the technique in general: A flow cytometer gives signals particle by particle.

Data set [5] has as its system VCaP cells. Nature of the data set: Washout experiment, cell growth. It counts as cell-based, human. To be noted: VCaP cells treated 6 h, compound removed, 5 days in compound-free media. As for the experimental part: The previously reported reversible inhibitor 10 was included for comparison. VCaP cells were treated with the compounds for 6 h, after which the compounds were removed, and the cells were cultured in compound-free media for 5 days.

The nature of data set [6]: Permeability and efflux ratio in Caco-2 cells. It is filed as in vitro ADME. The following applies: human. For orientation: Caco-2 cells form a polarised layer with tight junctions and transporters.
In data set [7] the test system is 468 kinases. Nature of the data set: KINOMEscan kinase selectivity profiling. It is filed as binding. The following applies: 1 μM; 403 non-mutant kinases. On the procedure:
Figure S1. The results of selectivity profiling study of compound 14h. (A) Chemical structure and the K d values of compound 14h against CDK12/13, and the KinomeScan kinase selectivity proﬁles of compound 14h at 1 μM against 468 kinases; (B) KinomeScan profiling results of compound 14h against CDK family members.
(1 picture or pasted object on this page, not shown here)

A short description of data set [8]: Pharmacokinetics study in mice. It is filed as in vivo, ICR mice. The following applies: both sexes, ICR, mouse, plasma.
Data set [9] has as its system VCaP CRPC xenograft. Description: In vivo efficacy, VCaP CRPC mouse model. Also noted: species or system mice. The following applies: YJZ5118 i.p., q.d., uprosertib p.o., 5x/week, 27 days, compared to vehicle. As for the experimental part: All the animal experiments were performed under an approved animal protocol (Protocol ID: PRO00010006, PI, Arul Chinnaiyan) by the Institutional Animal Care & Use Committee of the University of Michigan. Six- to eight-week-old NSG (Jackson Laboratory) or CB17SCID female (Charles River Laboratory) mice were in a regular SPF housing room prior to cell injection. Briefly, 5 ×10^6 cells of VCaP CRPC were injected […] of NSG or CB17SCID mice, respectively. After tumor size reached approximately 200–400 mm^3, animals were subjected to drug treatment. […] Vehicle consisted of 20% PEG400, 6% Cremophor EL, and 74% PBS solution. Tumors were collected at the end of the experiment for Western blot analysis.

T2 sequence (Q14004 whole entry): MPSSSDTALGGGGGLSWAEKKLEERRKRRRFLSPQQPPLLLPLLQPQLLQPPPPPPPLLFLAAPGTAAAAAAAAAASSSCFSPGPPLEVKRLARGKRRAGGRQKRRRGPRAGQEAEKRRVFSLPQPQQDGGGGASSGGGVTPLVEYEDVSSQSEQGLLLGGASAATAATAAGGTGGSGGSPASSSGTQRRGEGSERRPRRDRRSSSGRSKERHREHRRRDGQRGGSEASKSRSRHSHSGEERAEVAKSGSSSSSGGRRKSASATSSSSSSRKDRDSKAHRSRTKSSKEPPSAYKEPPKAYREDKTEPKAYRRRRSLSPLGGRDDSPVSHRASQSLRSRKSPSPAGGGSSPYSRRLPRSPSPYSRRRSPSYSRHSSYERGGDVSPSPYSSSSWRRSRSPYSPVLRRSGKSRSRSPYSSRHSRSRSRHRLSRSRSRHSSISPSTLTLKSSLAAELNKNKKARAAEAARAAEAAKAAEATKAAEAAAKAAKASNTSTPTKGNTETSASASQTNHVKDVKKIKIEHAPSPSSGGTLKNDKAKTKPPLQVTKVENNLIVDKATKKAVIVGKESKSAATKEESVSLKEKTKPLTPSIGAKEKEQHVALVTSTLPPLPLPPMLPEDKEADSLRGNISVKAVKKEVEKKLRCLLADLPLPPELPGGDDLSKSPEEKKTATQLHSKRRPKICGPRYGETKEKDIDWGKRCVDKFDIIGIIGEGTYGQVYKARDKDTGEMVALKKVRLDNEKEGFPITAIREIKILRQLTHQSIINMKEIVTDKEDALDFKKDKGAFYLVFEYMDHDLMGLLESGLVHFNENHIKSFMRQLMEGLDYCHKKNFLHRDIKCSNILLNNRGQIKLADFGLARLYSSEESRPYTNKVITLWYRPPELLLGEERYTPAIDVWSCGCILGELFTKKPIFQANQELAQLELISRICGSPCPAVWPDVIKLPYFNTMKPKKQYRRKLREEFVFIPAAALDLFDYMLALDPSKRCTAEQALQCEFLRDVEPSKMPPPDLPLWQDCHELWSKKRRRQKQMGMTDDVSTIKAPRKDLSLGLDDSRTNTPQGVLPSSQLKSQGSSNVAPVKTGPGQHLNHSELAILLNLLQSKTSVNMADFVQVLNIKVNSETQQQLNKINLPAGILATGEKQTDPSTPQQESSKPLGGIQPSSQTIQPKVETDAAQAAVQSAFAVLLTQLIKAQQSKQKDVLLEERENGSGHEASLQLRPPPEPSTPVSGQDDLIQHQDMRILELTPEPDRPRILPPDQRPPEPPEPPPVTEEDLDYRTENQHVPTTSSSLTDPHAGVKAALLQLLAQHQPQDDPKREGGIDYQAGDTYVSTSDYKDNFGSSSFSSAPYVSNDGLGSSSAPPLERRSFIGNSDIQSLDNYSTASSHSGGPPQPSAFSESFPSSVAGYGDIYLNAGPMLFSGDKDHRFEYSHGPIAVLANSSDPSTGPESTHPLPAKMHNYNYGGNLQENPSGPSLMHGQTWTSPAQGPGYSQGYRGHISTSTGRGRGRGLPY
T2 sequence (O75909 whole entry partner): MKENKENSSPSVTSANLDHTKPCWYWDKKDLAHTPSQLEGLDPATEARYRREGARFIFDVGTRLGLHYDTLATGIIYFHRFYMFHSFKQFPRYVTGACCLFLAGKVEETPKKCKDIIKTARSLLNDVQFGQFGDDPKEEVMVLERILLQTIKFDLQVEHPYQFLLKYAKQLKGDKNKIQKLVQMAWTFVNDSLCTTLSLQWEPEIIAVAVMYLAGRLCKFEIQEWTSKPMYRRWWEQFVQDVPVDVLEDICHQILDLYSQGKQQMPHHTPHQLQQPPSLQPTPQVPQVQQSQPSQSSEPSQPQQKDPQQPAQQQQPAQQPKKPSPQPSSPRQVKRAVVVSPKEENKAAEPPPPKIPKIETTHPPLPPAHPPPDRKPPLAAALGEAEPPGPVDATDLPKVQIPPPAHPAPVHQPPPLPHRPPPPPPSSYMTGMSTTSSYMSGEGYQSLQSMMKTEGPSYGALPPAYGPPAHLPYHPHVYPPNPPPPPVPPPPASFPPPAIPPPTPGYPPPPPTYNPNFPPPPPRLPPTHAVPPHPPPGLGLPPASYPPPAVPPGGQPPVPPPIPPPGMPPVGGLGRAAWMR
T1 sequence (Q9NYV4 whole entry): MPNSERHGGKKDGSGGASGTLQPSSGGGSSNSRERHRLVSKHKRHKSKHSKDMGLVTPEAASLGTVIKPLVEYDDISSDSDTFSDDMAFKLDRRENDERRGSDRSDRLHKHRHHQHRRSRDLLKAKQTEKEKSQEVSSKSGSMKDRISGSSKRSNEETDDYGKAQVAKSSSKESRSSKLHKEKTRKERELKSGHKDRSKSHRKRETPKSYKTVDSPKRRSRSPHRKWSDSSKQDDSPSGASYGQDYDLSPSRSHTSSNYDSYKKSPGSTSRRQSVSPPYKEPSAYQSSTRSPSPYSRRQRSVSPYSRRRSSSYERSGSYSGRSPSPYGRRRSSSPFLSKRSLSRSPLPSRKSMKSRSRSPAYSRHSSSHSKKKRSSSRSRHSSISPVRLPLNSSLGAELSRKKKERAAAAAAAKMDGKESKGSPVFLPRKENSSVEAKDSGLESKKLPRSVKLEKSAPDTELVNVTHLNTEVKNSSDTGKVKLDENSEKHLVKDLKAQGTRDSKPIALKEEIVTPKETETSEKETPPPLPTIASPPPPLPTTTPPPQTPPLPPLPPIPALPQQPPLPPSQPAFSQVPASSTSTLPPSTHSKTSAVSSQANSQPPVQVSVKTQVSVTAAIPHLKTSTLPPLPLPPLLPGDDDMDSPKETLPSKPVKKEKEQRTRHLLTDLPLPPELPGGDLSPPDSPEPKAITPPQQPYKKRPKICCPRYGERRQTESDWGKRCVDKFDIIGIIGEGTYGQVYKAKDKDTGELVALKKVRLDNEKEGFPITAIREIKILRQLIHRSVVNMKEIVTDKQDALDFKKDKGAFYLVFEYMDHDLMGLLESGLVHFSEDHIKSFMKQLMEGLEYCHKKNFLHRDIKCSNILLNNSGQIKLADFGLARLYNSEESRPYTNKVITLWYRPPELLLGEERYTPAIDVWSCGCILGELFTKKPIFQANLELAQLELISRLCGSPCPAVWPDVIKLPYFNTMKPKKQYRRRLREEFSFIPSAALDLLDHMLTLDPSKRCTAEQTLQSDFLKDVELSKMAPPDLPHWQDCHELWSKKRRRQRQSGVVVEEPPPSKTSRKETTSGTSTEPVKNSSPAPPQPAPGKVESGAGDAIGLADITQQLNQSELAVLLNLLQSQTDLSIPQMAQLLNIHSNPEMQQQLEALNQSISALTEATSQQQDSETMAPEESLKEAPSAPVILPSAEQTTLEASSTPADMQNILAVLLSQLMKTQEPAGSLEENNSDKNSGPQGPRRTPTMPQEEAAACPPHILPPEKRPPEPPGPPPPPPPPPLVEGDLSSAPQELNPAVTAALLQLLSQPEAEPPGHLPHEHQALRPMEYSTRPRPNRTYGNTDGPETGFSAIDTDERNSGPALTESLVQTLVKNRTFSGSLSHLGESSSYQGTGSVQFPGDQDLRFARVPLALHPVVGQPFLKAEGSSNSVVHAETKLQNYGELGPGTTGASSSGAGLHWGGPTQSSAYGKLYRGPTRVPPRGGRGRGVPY
T1 sequence (O75909 whole entry partner): as the sequence (O75909 whole entry partner) above

A word on the IC50: it is the point on the concentration scale where inhibition reaches its midpoint. High values mean weaker potency, low ones greater potency. With `CN(C)C/C=C/C(=O)Nc1ccc(C(=O)N2CCC[C@@H](Nc3ncc(Cl)c(-c4c[nH]c5ccccc45)n3)C2)cc1` [Compound 3, THZ531, reference compound], the IC50 in data set [1] came out at 77.4 nM; in [2], 63.3 nM; in [3], 33.5 nM. In addition, in [4], the apoptosis rate turned out to be 24.9%.

As to `Cn1cc(-n2cnc3c(NCc4nc5cc(Cl)c(Cl)cc5[nH]4)nc(N4CCOCC4)nc32)cn1` [Compound 10, SR-4835, reference compound], the “cell growth inhibitory effect after washout” value in data set [5] was “nearly completely lost following washout”.

For orientation: Papp A→B means how fast a substance crosses the layer from the apical side. As a reminder, the Papp B→A is how fast a substance crosses the layer from the basolateral side. One may read the efflux ratio as the permeability from basolateral to apical divided by that in the opposite direction, in the common usage. In [1], `C=CC(=O)Nc1cc(N(C(=O)NCc2ccccc2)[C@H]2CC[C@H](Nc3ccc(C#N)cn3)CC2)ccc1-c1ccc(=O)n(C)c1` [Compound 14a, N-(5-(3-benzyl-1-((1r,4r)-4-((5-cyanopyridin-2-yl)amino)cyclohexyl)ureido)-2-(1-methyl-6-oxo-1,6-dihydropyridin-3-yl)phenyl)acrylamide] yielded an IC50 of 37.9 nM. The compound further came in with an IC50 in [2] of 14.9 nM. In data set [3], the “antiproliferative potency in VCaP cells, fold more potent than lead compound 2” value was “approximately 6 fold” and the IC50 was 330 nM. Besides, in data set [6], the Papp A→B is 0.07 ×10⁻⁶ cm/s, the Papp B→A came out at 5.25 ×10⁻⁶ cm/s and the efflux ratio was determined as 72.6.

For the compound `C=CC(=O)Nc1cccc(N(C(=O)NCc2ccccc2)[C@H]2CC[C@H](Nc3ccc(C#N)cn3)CC2)c1` [Compound 14b, N-(3-(3-benzyl-1-((1r,4r)-4-((5-cyanopyridin-2-yl)amino)cyclohexyl)ureido)phenyl)acrylamide], in data set [1], 506 nM corresponded to half-maximal inhibition (IC50). In addition, the “reduction in kinase inhibitory potency compared with 14a” value in [1] (CDK12 and CDK13) is reported as 7- to 13 fold. Moreover, the IC50 in data set [2] was determined as 99 nM. For the same compound, in [3], the “fold more potency than 14a in the growth inhibition assay against VCaP cells” value stood at 3.4 fold and 96.2 nM corresponded to half-maximal inhibition (IC50). For the same compound, in data set [6], the Papp A→B was determined as 0.91 ×10⁻⁶ cm/s, the Papp B→A came out at 13.7 ×10⁻⁶ cm/s and the efflux ratio was determined as 15.

Regarding `C=CC(=O)Nc1cc(N(C(=O)NCc2ccccc2)[C@H]2CC[C@H](Nc3ccc(C#N)cn3)CC2)ccc1N(C)CCN(C)C` [Compound 14c, N-(5-(3-benzyl-1-((1r,4r)-4-((5-cyanopyridin-2-yl)amino)cyclohexyl)ureido)-2-((2-(dimethylamino)ethyl)(methyl)amino)phenyl)acrylamide], the IC50 in data set [1] came to 191 nM; in [2] it was 79.3 nM; in [3] it was 44.4 nM. In addition, in data set [3], the “antiproliferative potency in VCaP cells, fold more potent than lead compound 2” value is listed as “approximately 44 fold”.

For the compound `C=CC(=O)Nc1cc(N(C(=O)NCc2ccccc2)[C@H]2CC[C@H](Nc3ccc(C#N)cn3)CC2)ccc1N1CC(N(C)C)C1` [Compound 14d, N-(5-(3-benzyl-1-((1r,4r)-4-((5-cyanopyridin-2-yl)amino)cyclohexyl)ureido)-2-(3-(dimethylamino)azetidin-1-yl)phenyl)acrylamide], the results for the IC50 in data set [1], in data set [2] and in [3] were 151 nM, 73.7 nM and 133 nM, respectively.

As for `C=CC(=O)Nc1cc(N(C(=O)NCc2ccccc2)[C@H]2CC[C@H](Nc3ccc(C#N)cn3)CC2)ccc1N1CCC(N(C)C)C1` (some centres unmarked) [Compound 14e, N-(5-(3-benzyl-1-((1r,4r)-4-((5-cyanopyridin-2-yl)amino)cyclohexyl)ureido)-2-(3-(dimethylamino)pyrrolidin-1-yl)phenyl)acrylamide], the IC50 was found to be 568 nM in data set [1], 177 nM in data set [2] and 57.6 nM in [3].

Regarding `C=CC(=O)Nc1cc(N(C(=O)NCc2ccccc2)[C@H]2CC[C@H](Nc3ccc(C#N)cn3)CC2)ccc1N1CCN(C)CC1` [Compound 14f, N-(5-(3-benzyl-1-((1r,4r)-4-((5-cyanopyridin-2-yl)amino)cyclohexyl)ureido)-2-(4-methylpiperazin-1-yl)phenyl)acrylamide], the IC50 in [1] came to 130 nM; in data set [2] it was 66.8 nM; in data set [3] it was 39.9 nM.

On to `C=CC(=O)Nc1cc(N(C(=O)NCc2ccccc2)[C@H]2CC[C@H](Nc3ccc(C#N)cn3)CC2)ccc1N1C[C@H]2C[C@@H]1CN2C` [Compound 14g, N-(5-(3-benzyl-1-((1r,4R)-4-((5-cyanopyridin-2-yl)amino)cyclohexyl)ureido)-2-((1R,4R)-5-methyl-2,5-diazabicyclo[2.2.1]heptan-2-yl)phenyl)acrylamide], for which the figures for the half-inhibitory concentration (IC50) in data set [1], in [2] and in [3] were 209 nM, 83.9 nM and 76.3 nM, respectively.

The AUC(0-t) is the area under the concentration-time curve up to a stated or last time point. What is called Cmax is the maximum level reached in the sampled fluid or tissue. As usually defined, the Tmax is the time from dosing to the highest level. As usually defined, the clearance is the rate of elimination divided by the concentration. The low end stands for a low capacity for elimination, the high end for a high capacity for elimination. One may read the half-life as the time in which the quantity being followed falls by half. Lower therefore signals fast loss. The term bioavailability denotes dose-corrected exposure relative to a reference, in per cent. The compound `C=CC(=O)Nc1cc(N(C(=O)NCc2ccccc2)[C@H]2CC[C@H](Nc3ccc(C#N)cn3)CC2)ccc1N1CCN(C)[C@@H](C)C1` [Compound 14h, N-(5-(3-benzyl-1-((1r,4S)-4-((5-cyanopyridin-2-yl)amino)cyclohexyl)ureido)-2-((S)-3,4-dimethylpiperazin-1-yl)phenyl)acrylamide] returned an IC50 in data set [1] of 33.1 nM. The same compound showed an IC50 in data set [2] of 21.7 nM. The IC50 in data set [3] was determined as 4.3 nM. Further, in data set [7], the “Number of Hits, S (1)” value came out at 0; the “Number of Hits, S (10)” value was 2; the “Number of Hits, S (35)” value is 6; the “Selectivity Score S (10)” value stood at 0.005. In [7], the “Selectivity Score S (35)” value is listed as 0.015. In [8] (iv, i.v. 2 mg/kg), the area under the curve AUC(0-t) worked out at 309 ng·h/mL, the concentration peaked (Cmax) at 658 ng/mL, the Tmax came to 4.8 min and the clearance is 108 mL/min/kg. This compound had a half-life in data set [8] (iv, i.v. 2 mg/kg) of 21.6 min. In addition, the bioavailability in [8] (po, 10 mg/kg, p.o. 10 mg/kg, read-out: F (oral bioavailability)) was 42.2%. Besides, in [8] (po, p.o. 10 mg/kg), the AUC(0-t) was 652 ng·h/mL, the Cmax turned out to be 499 ng/mL, the Tmax stood at 30 min and the half-life is 37.2 min.

For the compound `C=CC(=O)Nc1cc(N(C(=O)NCc2ccccc2)[C@H]2CC[C@H](Nc3ccc(C#N)cn3)CC2)ccc1N1CCN(C(C)=O)CC1` [Compound 14i, N-(2-(4-acetylpiperazin-1-yl)-5-(3-benzyl-1-((1r,4r)-4-((5-cyanopyridin-2-yl)amino)cyclohexyl)ureido)phenyl)acrylamide], the IC50 in [1] worked out at 331 nM; in data set [2] it was 164 nM; in data set [3], 45.5 nM. Besides, the “fold weaker potency against the kinases compared to 14f” value in data set [1] (CDK12 and CDK13) is reported as 2- to 3 fold.

Regarding `C=CC(=O)Nc1cc(N(C(=O)NCc2ccccc2)[C@H]2CC[C@H](Nc3ccc(C#N)cn3)CC2)ccc1N1CCOCC1` [Compound 14j, N-(5-(3-benzyl-1-((1r,4r)-4-((5-cyanopyridin-2-yl)amino)cyclohexyl)ureido)-2-morpholinophenyl)acrylamide], the IC50 in data set [1] was determined as 55 nM; in [2], 12.8 nM; in data set [3] it was 59.9 nM.

Regarding `Cn1ncc(Cl)c1-c1cc(C(=O)N[C@H](CN)Cc2ccc(F)c(F)c2)oc1Cl` [Uprosertib, reference compound], the tumor growth result in data set [9] is given as “significant reduction in tumor growth”.

Values taken from paper PMC12147761 (Journal of medicinal chemistry, 2025).
